For 73 compounds, cytotoxicity results are on record in ChEMBL document CHEMBL3507680, “University of Dundee, Gates Library screen for HepG2 cell viability”.

This data set in a line: Human HepG2 cell viability assay in 384 well format. The data set is classed as toxicity, cell-based. Also on record: dose 125 nL, time 70.5 hour; concentration not given beside the values. The note with it: HepG2 cells, read-out: Inhibition.
On to `CN(C)C1CCCN(C(=O)NCc2ccccc2-n2cccn2)C1` (stereo not drawn), for which the cytotoxicity at 70.5 h stood at 10.5%. Consider `Cc1c(C(=O)N2CCCC(n3cccn3)C2)nnn1-c1ccccc1` (stereo not drawn), for which the cytotoxicity at 70.5 h was -2.31%. The figure for `Cc1ccc(CNC(=O)CN2CCCCC2Cn2cncn2)s1` (stereo not drawn) is -7.67%; for `CCc1noc(C(C)N2CCN(C)CC2)n1` (stereo not drawn) it is -7.05%; for `Cc1cnn(C2CCCN(C(=O)Cc3ccc(C#N)cc3)C2)c1` (stereo not drawn) it is -2.96%. The value for `Cc1cnn(CC2CCCN2CCCS(=O)(=O)N(C)C)c1` (stereo not drawn) was 2.72%; that for `CN(Cc1ccc2c(c1)OCO2)C(=O)Cn1cccnc1=O` was 17.3%.

For the compound `NC(=O)C1CCN(C(=O)NCc2ccccc2-n2cccn2)CC1`, the cytotoxicity at 70.5 h was -4.82%.

As for `CC(=O)NC1CCCN(C(=O)Nc2cccnc2-n2cccn2)C1` (stereo not drawn), the cytotoxicity at 70.5 h was -6.08%. The figure for `CN(C(=O)Cc1ccccc1Cl)C1CCN(c2ccccn2)CC1` is 2.75%; for `Cc1cnn(C2CCCN(C(=O)Cc3ccc4c(c3)CCO4)C2)c1` (stereo not drawn) it is 13.9%; for `CN(C(=O)Cc1ccccc1F)C1CCN(c2ccccn2)CC1` it is -3.14%. The value for `Cc1nn(-c2ccccc2)cc1C(=O)N1CCCC(n2ccnc2)C1` (stereo not drawn) was -0.753%. The figure for `Cc1cc(C)n(CC2CCCN2C(=O)c2ccc3nnc(C)n3c2)n1` (stereo not drawn) is -0.407%; for `Cn1cnc2c1CCN(CCCS(=O)(=O)c1ccccc1)C2` it is 24.3%. On to `CCN1CCC(CNC(=O)Nc2cc(C)on2)C1` (stereo not drawn), for which the cytotoxicity at 70.5 h was -4.44%. Take `Cc1cc(C)cc(OCCN(C)C(=O)NC(C)c2nncn2C)c1` (stereo not drawn): the cytotoxicity at 70.5 h came to 17.7%. Consider `COc1ccc(N2CCN(C(=O)NC(C)c3nncn3C)CC2)cc1` (stereo not drawn), for which the cytotoxicity at 70.5 h is -3.61%.

For the compound `Cc1cccc(C(=O)N2CCCN(Cc3cnn(C)c3)CC2)n1`, the cytotoxicity at 70.5 h is -19.9%.

Turning to `COc1cccc(COCC(=O)N2CCCC(n3ccnc3C)C2)c1` (stereo not drawn), the cytotoxicity at 70.5 h is -15.7%. The figure for `CCn1ccnc1CN1CCCN(C(=O)c2cccc(C#N)c2)CC1` is -15.8%. The value for `c1ncn(CC2CCCN2Cc2cn3ccsc3n2)n1` (stereo not drawn) was -16.9%; that for `COCCc1noc(CN2CCCCC2Cn2cc(C)cn2)n1` (stereo not drawn) was -11.7%. The value for `CCc1nc(CNCC2CCCN2c2cc(NC)ncn2)cs1` (stereo not drawn) was -4.75%; that for `CC(C)c1nnc2n1CCN(Cc1csc(CC(=O)N(C)C)n1)C2` was 49.9%; that for `CCc1noc(C(C)N2CCN(Cc3ncc(C(C)(C)C)o3)CC2)n1` (stereo not drawn) was 11.8%. Regarding `Cc1cc(C(C)C(=O)N2CCCN(Cc3cscn3)CC2)c(C)o1` (stereo not drawn), the cytotoxicity at 70.5 h turned out to be 18.7%. The figure for `COC(C(=O)N1CCCN(Cc2cscn2)CC1)c1ccccc1` (stereo not drawn) is 12.8%; for `CCc1noc(C(C)N2CCN(Cc3noc(C)n3)CC2)n1` (stereo not drawn) it is 26.6%; for `Cc1cc(C)n(CC2CN(Cc3nnsc3Cl)CCO2)n1` (stereo not drawn) it is -13%.

Consider `Cc1ccc(NC2CCN(C(=O)Cn3nc(C)cc3C)CC2)nn1`, for which the cytotoxicity at 70.5 h is -6.3%. In the case of `COc1ccc(-c2noc(CN3CCc4cncnc4C3)n2)cc1`, the cytotoxicity at 70.5 h is -8.79%. In the case of `O=C(c1cccnc1N1CCOCC1)N1CCCC(n2ccnc2)C1` (stereo not drawn), the cytotoxicity at 70.5 h is -6.03%. In the case of `Cc1oc(C)c(C(=O)NCc2ccccn2)c1C`, the cytotoxicity at 70.5 h is -6.3%.

In the case of `CCC1CN(CC(=O)Nc2sccc2C#N)CCO1` (stereo not drawn), the cytotoxicity at 70.5 h is -8.24%. With `N#Cc1cn(C2CC2)c(=O)n(CC(O)c2ccccc2F)c1=O` (stereo not drawn), the cytotoxicity at 70.5 h was -17%. Take `COc1ccc(C(O)CNC(=O)Nc2cc(C)nn2C)cc1` (stereo not drawn): the cytotoxicity at 70.5 h worked out at 25.3%. Consider `Cc1oc(C)c(C(=O)NCc2ccccc2S(=O)(=O)N(C)C)c1C`, for which the cytotoxicity at 70.5 h was -2.12%. The figure for `Cc1cc(C)n(CC(=O)N2CCC(NS(=O)(=O)c3ccccc3)CC2)n1` is -5.45%.

Consider `Cc1cc(C)c(CNC(=O)C2CCCN(c3cnccn3)C2)c(=O)[nH]1` (stereo not drawn), for which the cytotoxicity at 70.5 h was -14.3%. As for `COc1cc(CNCCc2cnn(C)c2)cc2c1OCCO2`, the cytotoxicity at 70.5 h is -12.1%.

On to `Cc1noc2ncc(C(=O)NCC3CCN(C(C)C)C3)cc12` (stereo not drawn), for which the cytotoxicity at 70.5 h was -4.09%. The figure for `Cc1nc2cc(=O)[nH]n2c(C)c1CC(=O)Nc1ccc2ccccc2n1` is -6.2%. The value for `Cc1cnn(CC2CN(CC(=O)Nc3sccc3C#N)CCO2)c1` (stereo not drawn) was -0.129%; that for `Cn1cnnc1CNC(=O)Nc1cc(C(F)(F)F)c[nH]c1=O` was -7.22%; that for `Cc1ccccc1CNC(=O)Cc1c(C)nc2cc(=O)[nH]n2c1C` was -2.94%. The value for `Cc1nc(C)n(CC2CCCN(CC(=O)Nc3nncs3)C2)n1` (stereo not drawn) was -6.97%; that for `Cc1ccc(NC2CCN(C(=O)c3c(C)noc3C)CC2)nn1` was -2.81%.

As to `O=C(COc1ccc(C(F)(F)F)cc1)NS(=O)(=O)c1cccnc1`, the cytotoxicity at 70.5 h was -3.77%. The figure for `Cc1nnc2n1CCN(C(=O)c1cc(Cl)c[nH]1)C2` is -6.67%; for `CCCC1CCCN(Cc2csc(-c3cnn(C)c3)n2)CC1` (stereo not drawn) it is 14.1%. The figure for `Cn1cc(-c2nc(CN3CCN(CCO)CC3)cs2)cn1` is 12.2%.

Turning to `CCC1CN(c2nnc(C)c(C)c2C#N)CCO1` (stereo not drawn), the cytotoxicity at 70.5 h was found to be 8.71%.

Consider `O=C(Cn1nc(-c2ccc(F)cc2)oc1=O)NCc1ccc(F)cc1`, for which the cytotoxicity at 70.5 h turned out to be 30.8%. On to `N#Cc1ccc(C(=O)NCCCNc2ccc(C(F)(F)F)cn2)cc1`, for which the cytotoxicity at 70.5 h was 0.522%. The figure for `CCn1cc(NC(=O)NCC(c2cccs2)N(C)C)cn1` (stereo not drawn) is -4.7%; for `COCCOc1ncccc1C(=O)Nc1ccc(-n2cncn2)c(F)c1` it is -6.17%. The value for `CCCNC(=O)CCC(=O)Nc1ccc(-n2cncn2)c(F)c1` was 36%. The figure for `O=C(Cn1cnc(NC(=O)CC2CCCC2)n1)NCc1ccccc1` is 1.33%; for `COCCNC(=O)Nc1ccc(-n2cncn2)c(F)c1` it is 40.1%; for `CCNC(=O)Nc1ccc2c(ccn2CC(=O)N(CC)CC)c1` it is -0.739%. For the compound `O=C(CCCc1nc2ccccc2[nH]1)N1CCCC(n2cccn2)C1` (stereo not drawn), the cytotoxicity at 70.5 h was -1.12%. On to `CN1CCCC1CNC(=O)CCCOCc1ccccc1` (stereo not drawn), for which the cytotoxicity at 70.5 h is -3.14%. The value for `Cc1cc(CN2CCN(C(=O)NC(C)Cn3ccnc3)CC2)no1` (stereo not drawn) was -3.28%; that for `Cc1nnc(N2CCOC(Cn3cccn3)C2)c(C#N)c1C` (stereo not drawn) was -8.57%; that for `CC(C)c1nnc2n1CCN(C(=O)CN1CCc3sccc3C1)C2` was -4.56%. As for `c1cnnc(N2CCCC2CNCc2cc[nH]n2)c1` (stereo not drawn), the cytotoxicity at 70.5 h is 11%. The figure for `COCC(c1cccc(C(F)(F)F)c1)N(C)C(=O)c1cc(C)n[nH]1` (stereo not drawn) is 18.4%; for `C=C1c2ccccc2C(=O)N1CCC(=O)N1CCNC(=O)C1` it is 3.89%; for `CCOCC(O)CN1CCN(C(=O)Cc2ccc(C)nc2)CC1` (stereo not drawn) it is -0.471%.

For the compound `COCC(c1cccc(C(F)(F)F)c1)N(C)C(=O)c1ccncc1` (stereo not drawn), the cytotoxicity at 70.5 h turned out to be 30.8%. The value for `Cc1noc(CCCC(=O)NC(C)c2cccnc2)n1` (stereo not drawn) was 0.606%; that for `COc1cc(CNCCc2nc(C)cs2)cc2c1OCCO2` was -0.752%.
